Columns and labels:
[1] = molecular target: murine TLR7 (Mus musculus (Mouse), UniProt P58681); experiment: HEK293-Blue-mTLR7 cell assay (SEAP reporter); assay type: cell-based; conditions: HEK293-Blue-mTLR7 cells, 20 hours incubation; read-out: EC50 of murine TLR7 activation
Experimental: FIG. 1: Example 1-A activates murine TLR7 in a HEK-Blue-mTLR assay. The cells were incubated with Example 1-A and a positive control GS-9620 at indicated concentrations for 20 hours. The activation of murine TLR7 was measured using a Quanti-Blue assay.
TLR7 Agonist Example 1-A Activates Murine TLR7
The potency of the TLR7 agonist Example 1-A activating murine TLR7 was assessed using a stable HEK293-Blue-mTLR7 cell line available from InvivoGen (Cat.#: hkb-mtlr7, San Diego, Calif., USA). Similar to the HEK293-Blue-hTLR7 as described in Example 43, the HEK293-Blue-mTLR7 is designed for studying the stimulation of murine TLR7 by monitoring the activation of NF-κB. A SEAP reporter gene was placed under the control of the IFN-β minimal promoter fused to five NF-κB and AP-1-binding sites. The SEAP expression was induced by the activation of NF-κB and AP-1 upon stimulation of murine TLR7 with TLR7 ligands. SEAP expression in cell culture supernatant was determined using a QUANTI-Blue™ kit (Cat.#: rep-qb1, Invivogen, San Diego, Calif., USA), a detection medium that turns purple/blue in the presence of alkaline phosphatase, at a wavelength of 655 nm. […]

[2] = molecular target: human TLR7 (Homo sapiens (Human), UniProt Q9NYK1); experiment: HEK293-Blue-hTLR-7 cells assay (SEAP reporter, NF-κB activation); assay type: cell-based; conditions: HEK293-Blue-hTLR-7 cells, 20 hours incubation, SEAP reporter; read-out: HEK293- hTLR-7 EC50
human TLR7, sequence (Q9NYK1 27-1049): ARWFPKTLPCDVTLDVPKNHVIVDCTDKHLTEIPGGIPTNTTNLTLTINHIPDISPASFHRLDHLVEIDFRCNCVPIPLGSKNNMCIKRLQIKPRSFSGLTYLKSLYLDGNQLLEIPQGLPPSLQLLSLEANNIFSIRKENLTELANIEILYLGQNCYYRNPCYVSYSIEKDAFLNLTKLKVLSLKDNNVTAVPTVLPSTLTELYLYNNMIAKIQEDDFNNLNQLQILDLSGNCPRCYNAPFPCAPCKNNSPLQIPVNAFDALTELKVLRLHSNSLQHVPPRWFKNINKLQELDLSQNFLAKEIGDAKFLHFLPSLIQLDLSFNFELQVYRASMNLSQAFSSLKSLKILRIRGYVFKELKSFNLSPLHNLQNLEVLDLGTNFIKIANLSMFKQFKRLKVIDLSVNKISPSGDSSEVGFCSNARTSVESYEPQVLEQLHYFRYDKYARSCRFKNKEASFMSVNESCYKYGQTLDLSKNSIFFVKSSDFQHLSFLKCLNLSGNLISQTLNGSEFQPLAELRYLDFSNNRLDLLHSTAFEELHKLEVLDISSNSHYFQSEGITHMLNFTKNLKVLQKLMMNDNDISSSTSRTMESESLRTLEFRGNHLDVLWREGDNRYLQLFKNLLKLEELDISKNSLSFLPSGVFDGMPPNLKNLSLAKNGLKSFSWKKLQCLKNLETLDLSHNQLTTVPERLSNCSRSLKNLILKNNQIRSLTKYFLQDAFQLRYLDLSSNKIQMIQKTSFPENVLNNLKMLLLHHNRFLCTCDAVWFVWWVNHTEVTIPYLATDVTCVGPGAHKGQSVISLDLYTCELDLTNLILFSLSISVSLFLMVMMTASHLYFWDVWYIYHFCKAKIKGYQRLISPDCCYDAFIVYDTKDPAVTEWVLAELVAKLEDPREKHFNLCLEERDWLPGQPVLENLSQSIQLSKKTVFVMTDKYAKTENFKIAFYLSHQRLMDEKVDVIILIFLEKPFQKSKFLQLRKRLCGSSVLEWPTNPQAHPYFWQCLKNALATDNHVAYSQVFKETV
From the text: HEK293-Blue-hTLR-7 Cells Assay: A stable HEK293-Blue-hTLR-7 cell line was purchased from InvivoGen (Cat.#: hkb-htlr7, San Diego, Calif., USA). These cells were designed for studying the stimulation of human TLR7 by monitoring the activation of NF-κB. A SEAP (secreted embryonic alkaline phosphatase) reporter gene was placed under the control of the IFN-β[…] minimal promoter fused to five NF-κB and AP-1-binding sites. The SEAP was induced by activating NF-κB and AP-1 via stimulating HEK-Blue hTLR7 cells with TLR7 ligands. Therefore the reporter expression was regulated by the NF-κB promoter upon stimulation of human TLR7 for 20 hours. The cell culture supernatant SEAP reporter activity was determined using QUANTI-Blue™ kit (Cat.#: rep-qb1, Invivogen, San Diego, Calif., USA) at a wavelength of 640 nm, a detection medium that turns purple or blue in the presence of alkaline phosphatase. […] Then 20 μL of the supernatant from each well was incubated with 180 μL Quanti-blue substrate solution at 37° C. for 2 hours and the absorbance was read at 620˜655 nm using a spectrophotometer. […] Hiroaki Hemmi et al, Nature Immunology 3, 196-200 (2002).

[3] = tested on: murine PBMC; experiment: In vitro cytokine induction in murine PBMC (multiplex assay); conditions: 2 to 10 μM, 24 hours, dose-dependent
Experimental: Supernatants were collected at 24 hour post treatment and cytokine levels in supernatants were assessed by a multiplex assay.
50 μL of cell culture medium was collected and analyzed with a 36 plex Procarta multiplex kit (ebioscience EPX360-26092-901, eBioscience), which measured the levels of 15 cytokine analytes, following the manufacturer's instruction.

murine TLR7, sequence (P58681 27-1050 limits assumed): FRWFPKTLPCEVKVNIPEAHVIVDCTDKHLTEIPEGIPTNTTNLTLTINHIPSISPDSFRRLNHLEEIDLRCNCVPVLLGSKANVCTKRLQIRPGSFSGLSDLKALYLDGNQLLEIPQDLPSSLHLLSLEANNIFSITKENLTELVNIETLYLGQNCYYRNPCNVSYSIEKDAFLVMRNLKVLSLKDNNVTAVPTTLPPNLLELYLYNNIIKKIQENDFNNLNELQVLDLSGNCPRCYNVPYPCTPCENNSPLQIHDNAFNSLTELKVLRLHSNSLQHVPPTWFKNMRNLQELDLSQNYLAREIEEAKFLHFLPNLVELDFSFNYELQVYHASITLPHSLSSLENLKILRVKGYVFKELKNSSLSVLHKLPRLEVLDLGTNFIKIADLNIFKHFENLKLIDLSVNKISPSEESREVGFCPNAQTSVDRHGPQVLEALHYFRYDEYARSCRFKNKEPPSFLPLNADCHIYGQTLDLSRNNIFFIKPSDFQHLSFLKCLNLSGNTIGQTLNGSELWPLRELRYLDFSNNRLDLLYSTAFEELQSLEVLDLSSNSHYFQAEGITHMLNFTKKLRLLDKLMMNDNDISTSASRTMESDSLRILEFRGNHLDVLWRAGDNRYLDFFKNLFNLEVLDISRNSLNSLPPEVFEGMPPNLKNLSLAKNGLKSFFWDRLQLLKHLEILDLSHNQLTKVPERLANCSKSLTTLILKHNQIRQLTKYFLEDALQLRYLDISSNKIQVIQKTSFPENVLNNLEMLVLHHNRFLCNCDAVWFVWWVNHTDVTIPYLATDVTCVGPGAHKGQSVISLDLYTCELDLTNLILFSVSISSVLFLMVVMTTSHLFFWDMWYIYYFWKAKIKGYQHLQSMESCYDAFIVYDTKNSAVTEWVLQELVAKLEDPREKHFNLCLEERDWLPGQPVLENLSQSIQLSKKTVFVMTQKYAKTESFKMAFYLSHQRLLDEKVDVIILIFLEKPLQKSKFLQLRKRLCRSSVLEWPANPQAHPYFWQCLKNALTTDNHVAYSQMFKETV

SMILES: CCC(O)[C@@H]1C[C@@H](O)[C@H](n2c(=O)sc3c(=O)[nH]c(N)nc32)O1 (single isomer, unassigned) [Example 1-A]
- EC50 [1]: 71.8 µM
- EC50 [2]: 52 µM
- IFNα induction [3]: high levels
- IL-6 induction [3]: high levels
- IP10 induction [3]: high levels
- TNFα induction [3]: high levels

From patent publication US10040815B2, “3-substituted 5-amino-6H-thiazolo[4,5-d]pyrimidine-2,7-dione compounds for the treatment and prophylaxis of virus infection” (Hoffmann-La Roche Inc., priority 2014, dated 2018)
